Legend:
H358 cells = experiment: Cell proliferation assay, H358 cells (Cell-titer Glo); type: cell-based; conditions: Homo sapiens, NCI-H358, 96 h incubation
Description: (§1) Pave the H358 cells on a 96-well ultra-low adsorption plate with 2000 cells and 190 μL/well. After incubating overnight, compound solutions of gradient concentration was prepared, and added 10 μL of DMSO solution of the test compound of each concentration to the cells of each well. The final concentration of the compound is 10000, 3333.3, 1111.1, 370.4, 123.5, 41.2, 13.7, 4.6, 1.5, 0 nM (the final concentration of DMSO is 0.25%). Incubated for 96 h at 37° C. and 5% CO2. 50 μL of Cell-titer Glo working solution was added to each well, shaked and mixed, and incubated at room temperature for 10 minutes. The multi-functional microplate reader read the luminescence value, and converted the luminescence value reading into inhibition percentage.
(§2) Inhibition percentage=(maximum value−reading)/(maximum value−minimum value)*100.
(§3) The “maximum value” was the DMSO control, the “minimum value” indicates the cell-free control group.
(§4) Graphpad Prism software was used to perform curve fitting and obtain IC50 value.
Refer to table 3 for the IC50 data of some compounds in the Examples for inhibiting H358 cells.

MIA-PACA-2 cells = experiment: Cell proliferation assay, MIA-PACA-2 cells (Cell-titer Glo); type: cell-based; conditions: Homo sapiens, 96 h incubation
Description: as §1, with “the MIA-PACA-2” for “the H358”, “cells into” for “cells on”, “plate at 600 cells, 160” for “plate with 2000 cells and 190”, “added 40” for “added 10”, “10000, 2000, 400, 80, 16, 3.2, 0.64, 0.12, 0.025,” for “10000, 3333.3, 1111.1, 370.4, 123.5, 41.2, 13.7, 4.6, 1.5,”
as §2, §3, §4
Refer to Table 3 for the IC50 data of some compounds in the examples inhibiting MIA-PACA-2 cells.

Structure (SMILES) | IC50 (H358 cells) [nM] | IC50 (MIA-PACA-2 cells) [nM]
C=CC(=O)N1CC2(CCN(c3nc(C4CCN(CC)CC4)nc4c(OCC(F)(F)F)c(-c5c(C)ccc6[nH]ncc56)c(C=C)cc34)CC2)C1 [Example 9, 1-(7-(2-(1-ethylpiperidin-4-yl)-7-(5-methyl-1H-indazol-4-yl)-8-(2,2,2-trifluoroethoxy)-6-vinylquinazolin-4-yl)-2,7-diazaspiro[3.5]nonan-2-yl)prop-2-en-1-one] | 3.7 | 2.1
C=CC(=O)N1CC2(CCN(c3nc(C4CCN(C)CC4)nc4c(OCC)c(-c5c(C)ccc6[nH]ncc56)c(Cl)cc34)CC2)C1 [Example 10, 1-(7-(6-chloro-8-ethoxy-7-(5-methyl-1H-indazol-4-yl)-2-(1-methylpiperidine-4-yl)-quinazolin-4-yl)-2,7-diazaspiro[3.5]nonan-2-yl)prop-2-en-1-one] | – | 25
C=CC(=O)N1CC2(CCN(c3nc(C4CCN(C)CC4)nc4c(OCC)c(-c5c(C)ccc6[nH]ncc56)c(C=C)cc34)CC2)C1 [Example 11, 1-(7-(8-ethoxy-7-(5-methyl-1H-indazol-4-yl)-2-(1-methylpiperidin-4-yl)-6-vinylquinazolin-4-yl)-2,7-diazaspiro[3.5]nonan-2-yl)prop-2-en-1-one] | 4.7 | 4.8
C=CC(=O)N1CC2(CCN(c3nc(C4CCN(C)CC4)nc4c(OC)c(-c5c(C)ccc6[nH]ncc56)c(Cl)cc34)CC2)C1 [Example 12, 1-(7-(6-chloro-8-methoxy-7-(5-methyl-1H-indazol-4-yl)-2-(1-methylpiperidine-4-yl)-quinazolin-4-yl)-2,7-diazaspiro[3.5]nonan-2-yl)prop-2-en-1-one] | 76.2 | 107
C=CC(=O)N1CC2(CCN(c3nc(C4CCN(C)CC4)nc4c(OC)c(-c5c(C)ccc6[nH]ncc56)c(C=C)cc34)CC2)C1 [Example 13, 1-(7-(8-methoxy-7-(5-methyl-1H-indazol-4-yl)-2-(1-methylpiperidin-4-yl)-6-vinylquinazolin-4-yl)-2,7-diazaspiro[3.5]nonan-2-yl)prop-2-en-1-one] | 26.3 | 22
C=CC(=O)N1CC2(CCN(c3nc(C4CCN(C)CC4)nc4c(C)c(-c5c(C)ccc6[nH]ncc56)c(C=C)cc34)CC2)C1 [Example 15, 1-(7-(8-methyl-7-(5-methyl-1H-indazol-4-yl)-2-(1-methylpiperidin-4-yl)-6-vinylquinazolin-4-yl)-2,7-diazaspiro[3.5]nonan-2-yl)prop-2-en-1-one] | – | 50.5
C=CC(=O)N1CC2(CCN(c3nc(C4CCN(C)CC4)nc4c(OCC(F)(F)F)c(-c5c(C)ccc6[nH]ncc56)c(C5CC5)cc34)CC2)C1 [Example 16] | 3.2 | 4.8
C=CC(=O)N1CC2(CCN(c3nc(C4CCN(C)CC4)nc4c(OCC(F)(F)F)c(-c5ccc6[nH]ncc6c5)c(C5CC5)cc34)CC2)C1 [Example 17] | 8440 | 1540
C=CC(=O)N1CC2(CCN(c3nc(C4CCN(C)CC4)nc4c(OCC(F)(F)F)c(-c5ccnc6[nH]ncc56)c(C5CC5)cc34)CC2)C1 [Example 18] | 715 | 177
C=CC(=O)N1CC2(CCN(c3nc(C4CCN(C)CC4)nc4c(OCC(F)(F)F)c(-c5ccc6cn[nH]c6c5)c(C5CC5)cc34)CC2)C1 [Example 19] | – | 2290
C=CC(=O)N1CC2(CCN(c3nc(C4CCN(C)CC4)nc4c(OCC(F)(F)F)c(-c5cc(F)cc(F)c5)c(C5CC5)cc34)CC2)C1 [Example 20] | 4200 | 1320
C=CC(=O)N1CC2(CCN(c3nc(C4CCN(C)CC4)nc4c(OCC(F)(F)F)c(-c5cc(F)cc(OC)c5)c(C5CC5)cc34)CC2)C1 [Example 21] | 2720 | –
C=CC(=O)N1CC2(CCN(c3nc(C4CCN(C)CC4)nc4c(OCCOC)c(-c5c(C)ccc6[nH]ncc56)c(C5CC5)cc34)CC2)C1 [Example 22, 1-(7-(6-cyclopropyl-8-(2-methoxyethoxy)-7-(5-methyl-1H-indazol-4-yl)-2-(1-methylpiperidin-4-yl)quinazolin-4-yl)-2,7-diazaspiro[3.5]nonan-2-yl)prop-2-en-1-one] | 49.6 | 21
C=CC(=O)N1CC2(CCN(c3nc(C4CCN(C)CC4)nc4c(OCCOC)c(C5CC5)c(C5CC5)cc34)CC2)C1 [Example 23] | 1700 | 647
C=CC(=O)N1CC2(CCN(c3nc(C4CCN(C)CC4)nc4c(OCC(F)F)c(-c5c(C)ccc6[nH]ncc56)c(C5CC5)cc34)CC2)C1 [Example 24, 1-(7-(6-cyclopropyl-8-(2,2-difluoroethoxy)-7-(5-methyl-1H-indazol-4-yl)-2-(1-methylpiperidin-4-yl)quinazolin-4-yl)-2,7-diazaspiro[3.5]nonan-2-yl)prop-2-en-1-one] | 17.7 | 14.5
C=CC(=O)N1CC2(CCN(c3nc(C4CCN(C)CC4)nc4c(OCC)c(-c5c(C)ccc6[nH]ncc56)c(CC)cc34)CC2)C1 [Example 25] | 13 | 32.6
C=CC(=O)N1CC2(CCN(c3nc(C4CCN(C)CC4)nc4c(OC5CCC5)c(-c5c(C)ccc6[nH]ncc56)c(CC)cc34)CC2)C1 [Example 26] | 24.9 | 68.2
C=CC(=O)N1CC2(CCN(c3nc(C4CCN(C)CC4)nc4c(OC(C)C)c(-c5c(C)ccc6[nH]ncc56)c(CC)cc34)CC2)C1 [Example 27] | 392 | 388
C=CC(=O)N1CC2(CCN(c3nc(C4CCN(C)CC4)nc4c(OCC(F)F)c(-c5c(C)ccc6[nH]ncc56)c(CC)cc34)CC2)C1 [Example 28] | 44.7 | 61.4
C=CC(=O)N1CC2(CCN(c3nc(C4CCN(C)CC4)nc4c(OCCF)c(-c5c(C)ccc6[nH]ncc56)c(CC)cc34)CC2)C1 [Example 29] | 1080 | 455
C=CC(=O)N1CC2(CCN(c3nc(C4CCN(C)CC4)nc4c(OCCOC)c(-c5c(C)ccc6[nH]ncc56)c(CC)cc34)CC2)C1 [Example 30] | 60.5 | 171
C=CC(=O)N1CC2(CCN(c3nc(C4CCN(C)CC4)nc4c(OCC5CC5)c(-c5c(C)ccc6[nH]ncc56)c(CC)cc34)CC2)C1 [Example 31] | 20.4 | 91.9
C=CC(=O)N1CC2(CCN(c3nc(C4CCN(C)CC4)nc4c(OCC(F)(F)F)c(-c5c(C)ccc6[nH]ncc56)c(Cl)cc34)CC2)C1 [Example 32, 1-(7-(6-chloro-7-(5-methyl-1H-indazol-4-yl)-2-(1-methylpiperidin-4-yl)-8-(2,2,2-trifluoroethoxy)quinazoline-4-yl)-2,7-diazaspiro[3.5]nonan-2-yl)prop-2-en-1-one] | 17.9 | 16.7
C=CC(=O)N1CC2(CCN(c3nc(C4CCN(C)CC4)nc4c(OC5CCC5)c(-c5c(C)ccc6[nH]ncc56)c(Cl)cc34)CC2)C1 [Example 33] | 69.7 | 42.9
C=CC(=O)N1CC2(CCN(c3nc(C4CCN(C)CC4)nc4c(OCC(F)F)c(-c5c(C)ccc6[nH]ncc56)c(Cl)cc34)CC2)C1 [Example 34] | 39 | 36.9
C=CC(=O)N1CC2(CCN(c3nc(C4CCN(CCOC)CC4)nc4c(OCC(F)(F)F)c(-c5c(C)ccc6[nH]ncc56)c(CC)cc34)CC2)C1 [Example 35, 1-(7-(6-ethyl-2-(1-(2-methoxyethyl)piperidin-4-yl)-7-(5-methyl-1H-indazol-4-yl)-8-(2,2,2-trifluoroethoxy)quinazolin-4-yl)-2,7-diazaspiro[3.5]nonan-2-yl)prop-2-en-1-one] | 9.6 | 10.9
C=CC(=O)N1CC2(CCN(c3nc(C4CCN(CC(C)(C)O)CC4)nc4c(OCC(F)(F)F)c(-c5c(C)ccc6[nH]ncc56)c(CC)cc34)CC2)C1 [Example 36, 1-(7-(6-ethyl-2-(1-(2-hydroxy-2-methylpropyl)piperidin-4-yl)-7-(5-methyl-1H-indazol-4-yl)-8-(2,2,2-trifluoroethoxy)quinazolin-4-yl)-2,7-diazaspiro[3.5]nonan-2-yl) prop-2-en-1-one] | 10.6 | 10.1
C=CC(=O)N1CC2(CCN(c3nc(C4CCN(C5COC5)CC4)nc4c(OCC(F)(F)F)c(-c5c(C)ccc6[nH]ncc56)c(CC)cc34)CC2)C1 [Example 37] | 18.4 | 23.4
C=CC(=O)N1CC2(CCN(c3nc(C4CN(CC(C)(C)O)C4)nc4c(OCC(F)(F)F)c(-c5c(C)ccc6[nH]ncc56)c(CC)cc34)CC2)C1 [Example 38, 1-(7-(6-ethyl-2-(1-(2-hydroxy-2-methylpropyl)azetidin-3-yl)-7-(5-methyl-1H-indazol-4-yl)-8-(2,2,2-trifluoroethoxy)quinazolin-4-yl)-2,7-diazaspiro[3.5]nonan 2-yl) prop-2-en-1-one] | 59.3 | 74.2
C=CC(=O)N1CC2(CCN(c3nc(C4CCN(C)CC4)nc4c(Oc5c(C)ccc6[nH]ncc56)cccc34)CC2)C1 [Example 54] | – | 9600

From US20230219956A1 (BETTA PHARMACEUTICALS CO.,LTD, priority 2019, published 2023)
